Assay results reported in patent publication US20090324691A1, “METHODS AND OPHTHALMIC DEVICES USED IN THE TREATMENT OF OCULAR ALLERGIES” (priority 2008, published 2009).
Structures can show the parent of a compound that is named as a salt.

Columns and labels:
[1] = concentrations higher than 0.025% (0.25 mg/mL), topical solution; cited from earlier work
[2] = Uptake of ketotifen fumarate to an ophthalmic device over time (FIG. 1); assay type: physicochemical; conditions: 3.0 mL of 43 ug/mL ketotifen fumarate packing solution per lens
Procedure: FIG. 1 illustrates the uptake of ketotifen fumarate to an ophthalmic device over time.
Three lots of 1-Day Acuvue® Brand Contact Lenses (etafilcon A) were cured and hydrated with deionized water. These lenses were inserted into glass vials containing 3.0 mL of a 43 ug/mL ketotifen fumarate packing solution per lens (packing solution formulation: borate buffered saline containing 0.83% sodium chloride, 0.9% boric acid, 100 ug/mL of dicalcium DTPA, and 0.1% sodium borate decahydrate ). The soaked and harvested at 5, 15, 30, 90 and 180 minutes and extracted and assayed as in Example 1 to determine the amount of ketotifen per treated lens. This graph illustrates that a minimum effective amount of in an etafilcon A contact lens is attained within 15 minutes of treatment.

Structure (SMILES): CN1CCC(=C2c3ccccc3CC(=O)c3sccc32)CC1 [ketotifen fumarate]
- ocular tolerability of higher concentrations [1]: sting and burn upon initial administration to the eye
- time of treatment to attain a minimum effective amount in an etafilcon A contact lens [2]: ≤ 15 min
